# pIC50: −log10 of the molar value. Ends that are not written are not given here.
# Legend:
# endotoxin = experiment: Endotoxin content in blood of LPS-induced mice (LAL kit); format: in vivo, Balb/C mice; settings: low, medium and high dose (4, 8, 16 mg/kgBW i.v.); 6 h after LPS 5 mg/kg BW i.p.; dose-response relationship
# Description: The detection was performed according to the specification of the endotoxin test LAL (Limulus Amebocyte Lysate) kit:
# (1) anticoagulant venous blood of each group of mice constructed in example 9 was taken and centrifuged for 2 min at 3000 rpm/min; 100 ul supernate was taken and added to a 0.9 ml sample treating fluid;
# (2) the above sample was put in a 70° C. dry-heat sterilization box for 10 min, then cooled by running water;
# (3) concentration gradient of an endotoxin standard was 1.0, 0.5, 0.25 and 0.1 EU/ml;
# (4) several endotoxin-free test tubes were taken, and 100 ul water for detecting bacterial endotoxin, an endotoxin standard and a test product were added respectively;
# (6) 100 ul TAL solution was added, mixed evenly, and covered by a silver paper, and incubated for 10 min at 37° C.;
# (7) 100 ul developing-matrix solution was added, mixed evenly, and incubated for 6 min at 37° C.;
# (8) 500 ul azo reagent 1 was added and mixed evenly;
# (9) 500 ul azo reagent 2 was added and mixed evenly;
# (10) 500 ul azo reagent 3 was added, mixed evenly, standing for 5 min;
# (11) OD value was measured at 545 nm.
# [1] = test system: BK-induced pulmonary microvascular leakage; experiment: BK-induced pulmonary microvascular leakage in guinea pigs (Evans blue in lung tissue); format: in vivo, guinea pig; settings: intranasal 50 μL/side/day for 3 days
# Description: Male guinea pigs weighing 400 g±5% were randomly divided into 6 groups, 6 per group.
# 1. normal control group: an equal volume of normal saline was injected intravenously on the lateral foot vein, for 3 days;
# 2. model group: an equal volume of normal saline was injected intravenously on the lateral foot vein, for 3 days;
# 3. positive control group: 1.25 mg/3 ml/kg BW dexamethasone was injected intravenously on the lateral foot vein, for 3 days;
# 4. high-dose synthetic peptide brap group: bilateral nasal cavities of the guinea pig were injected the synthetic peptide brap having a concentration of 3.0 mM/L by a micro-sampling gun with 50 μL/side/day for 3 days; […]
# 2. […] The solution was centrifuged for 5 min at 1500 rpm/min; supernatant was taken to measure the absorbance with a wavelength of 620 nm.
# 3. Preparation of an EB standard curve: 0.1 mL 0.1% EB solution was taken accurately and added 0.9 mL normal saline to be prepared into 1 mL 0.01% EB standard solution; 0.1 mL EB standard solution was taken and added formamide to 2 mL with a final concentration of 5 mg/L; then the solution was diluted by formamide to 4, 2, 1, and 0.5 mg/L. An absorbancy OD value was measured at a wavelength of 620 nm; OD value was denoted y-coordinate; EB concentration was denoted by x-coordinate; then a standard curve of OD value-EB concentration was drawn, as shown in FIG. 7A.
# Bradykinin B2 receptor = Bradykinin B2 receptor (Homo sapiens, UniProt P30411); experiment: cell-based
# Bradykinin B2 receptor, sequence (P30411 whole entry): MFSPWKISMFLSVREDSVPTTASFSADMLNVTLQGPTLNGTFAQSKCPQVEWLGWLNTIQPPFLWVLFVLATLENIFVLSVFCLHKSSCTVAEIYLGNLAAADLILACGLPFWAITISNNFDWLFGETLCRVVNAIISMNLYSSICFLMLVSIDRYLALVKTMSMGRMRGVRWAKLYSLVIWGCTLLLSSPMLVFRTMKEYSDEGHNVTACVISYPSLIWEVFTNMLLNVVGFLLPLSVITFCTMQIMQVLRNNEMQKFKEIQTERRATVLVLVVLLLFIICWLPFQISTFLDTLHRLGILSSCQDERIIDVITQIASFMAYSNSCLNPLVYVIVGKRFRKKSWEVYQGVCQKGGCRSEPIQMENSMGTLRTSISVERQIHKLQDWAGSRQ
# [2] = test system: OVA-induced allergic rhinitis; experiment: Rat allergic nasal inflammation (OVA-induced allergic rhinitis), intranasal administration; format: in vivo, SD rat; settings: bilateral nasal cavities 50 μL/side, 4 weeks
# Description: SD rat modeling: two stages of intraperitoneal injection for sensitization and intranasal dripping for stimulation. Ovalbumin was injected intraperitoneally, and 1 mg ovalbumin (V-class Sigma, USA) was dissolved in 1 ml normal saline, and 30 mg of aluminum hydroxide was added as an immunologic adjuvant. Each rat was intraperitoneally injected 1 ml ovalbumin suspension prepared above with 1 ml/time every other day and for 7 times in total; and stimulated intranasally with ovalbumin on the 15th day; 20 mg ovalbumin (V-class Sigma, USA) were dissolved in 1 ml normal saline to be prepared into a 2% solution; and the 2% ovalbumin solution was used for stimulation by nasal dripping; and 50 ul nasal drips were administered in each of the nasal cavities of each rat for 7 consecutive days.
# Blank control group: 30 mg of aluminum hydroxide+1 ml of normal saline were mixed evenly, and then injected intraperitoneally; and the method was the same as the above.
# Normal saline was dripped into nasal cavities on the 15th day.
# After the final nasal dripping was performed, each rat was observed and evaluated according to a scoring table: Sneezing, nose scratching, gasping and nasal secretions
# 1. Administration way: a drug was administered with a micro-sampling gun, bilateral nasal cavities of a rat were administered with 50 μL/side, after being administered for 20 min, a 2% ovalbumin solution was administered to bilateral nasal cavities of the rat; 50 μL/side nasal dripping was administered for provocation; the above treatment was performed for 4 consecutive weeks to observe the pharmacodynamic effect.
# High-dose synthetic peptide brap: a synthetic peptide brap freeze-dried powder (5 mg/bottle) was taken, and 1.63 ml sterile saline solution was added for dissolving;
# medium-dose synthetic peptide brap: a synthetic peptide brap freeze-dried powder (5 mg/bottle) was taken, and 4.89 ml sterile saline solution was added for dissolving;
# low-dose synthetic peptide brap: a synthetic peptide brap freeze-dried powder (5 mg/bottle) was taken, and 14.67 ml sterile saline solution was added for dissolving;
sequence,measurement,setting,value
RVLNGPEAPA [brap],Blood endotoxin level compared with the model group,endotoxin,obviously below that in the model group
same,Content of EB in lung tissues compared with the positive control group (dexamethasone),"[1]; P>0.05, except for the low-dose group",no significant difference
same,Content of EB in lung tissues compared with the model group,"[1]; low, medium, high dose (0.33, 1.0, 3.0 mM/L), P<0.01, dose-response relationship",obviously lower than that in the model group
same,pIC50,Bradykinin B2 receptor,~3.00
same,Scoring change before and after treatment,"[2]; all dose groups of the peptide, continued OVA provocation",decreases
same,Allergic rhinitis symptom scoring compared with the model group,"[2]; high, medium and low dose, significant difference",can improve the OVA-induced allergic rhinitis symptoms

# — patent US11401303B2, “Synthetic peptide BRAP and application in preparation of anti-inflammatory drug for COVID-19 thereof” (TAIAN CITY QIHANG BIOTECHNOLOGY CO., priority 2020, dated 2022)
